Each block holds one compound with its values, some of them ahead of it.
Assay: solvent given as SMILES
[1] = in O=P(c1ccccc1)(c1ccccc1)c1ccccc1Oc1ccccc1P(=O)(c1ccccc1)c1ccccc1

emission maximum (in C1CCOC1): 535 nm
emission maximum (in CC#N): 596 nm
emission maximum (in CCCCCCC): 461 nm
emission maximum (in CS(C)=O): 598 nm
emission maximum (in ClCCl): 565 nm
SMILES: C(=C\c1cnc2ccccc2n1)/c1ccc(N(c2ccccc2)c2ccccc2)cc1

emission maximum (in ClCCl): 520 nm
SMILES: COC(=O)C1=C(C(=O)OC)C2(c3ccccc3-c3c(Br)cc(Br)cc32)C2(/C=C/c3ccc(Cl)cc3)c3cc(OC)c(OC)cc3CCN12 (configuration not stated)

emission maximum (in ClCCl): 492 nm
SMILES: COc1ccc(C#Cc2c3ccccc3c(C#Cc3ccc(OC)cc3)c3ccccc23)cc1

emission maximum (in CO): 584 nm
SMILES: C(=C\c1c[nH]c2ccc(Oc3ccccc3)cc12)/C1=[NH+]c2cccc3cccc1c23

emission maximum (in CC#N): 528 nm
SMILES: CN(C)c1ccc(-c2nc3nc4ccccc4nc3n2-c2ccccc2)cc1

emission maximum (in ClCCl): 417 nm
SMILES: COc1cc(-c2ncc(-c3ccncc3)o2)cc(OC)c1OC

emission maximum (in C1CCOC1): 564 nm
emission maximum (in CN1CCCC1=O): 592 nm
emission maximum (in CN(C)C=O): 576 nm
SMILES: O=C1c2ccc3c4c(Oc5ccccc5)cc5c6c(ccc(c7c(Oc8ccccc8)cc(c2c37)C(=O)N1c1ccc(O)cc1)c64)C(=O)N(c1ccc(O)cc1)C5=O

emission maximum (in C1CCCCC1): 475 nm
emission maximum (in CC#N): 467 nm
emission maximum (in CO): 473 nm
emission maximum (in ClCCl): 485 nm
emission maximum (in O): 470 nm
SMILES: Cc1nc(-c2ccccc2)c2ccccn12

emission maximum (in ClCCl): 780 nm
SMILES: CCc1ccc(C2=[N+]3C(=Cc4c5ccc(OC)cc5c(-c5ccc(CC)s5)n4[B-]3(F)F)c3ccc(OC)cc32)s1

emission maximum (in ClCCl): 722 nm
SMILES: COc1ccc(C2=C3C(/C=C/c4cc(OC)c(OC)c(OC)c4)=C(C=O)C(/C=C/c4cc(OC)c(OC)c(OC)c4)=[N+]3[B-](F)(F)n3c(/C=C/c4cc(OC)c(OC)c(OC)c4)c(C=O)c(C=Cc4cc(OC)c(OC)c(OC)c4)c32)cc1

emission maximum (in CC#N): 535 nm
SMILES: Cc1ccc(-c2sc(/C(C#N)=C/c3ccc(C#N)cc3)nc2-c2ccc(Cl)cc2)cc1

emission maximum (in CCCCCC): 403 nm
emission maximum (in CCO): 435 nm
emission maximum (in CO): 443 nm
emission maximum (in ClCCl): 417 nm
emission maximum (in c1ccccc1): 410 nm
SMILES: C(=C\c1cnccn1)/c1ccc2nccnc2c1

emission maximum (in CC#N): 485 nm
SMILES: O=C(O)c1ccc(-c2ccc(-c3nc(-c4ccccc4)c4ccccn34)cc2)s1

emission maximum (in ClCCl): 452 nm
SMILES: COc1ccc(-c2c3ccccc3c(C#Cc3ccccc3)c3ccccc23)cc1

emission maximum (in ClC(Cl)Cl): 553 nm
SMILES: Oc1cccc(C2=[N+]3C(=C(c4ccccc4)c4cccn4[B-]3(F)F)C=C2)c1

emission maximum (in ClCCl): 704 nm
SMILES: CCCCCN1c2ccccc2Sc2cc(/C=C/c3ccc(/C=C(\C#N)C(=O)O)s3)ccc21

emission maximum (in C1CCCCC1): 486 nm
emission maximum (in C1CCOC1): 520 nm
emission maximum (in CC#N): 535 nm
SMILES: Cn1nc(-c2ccccc2)c2nc3cc(F)ccc3nc21

emission maximum (in ClCCl): 415 nm
SMILES: C[Si]1(C)c2cc(-c3cccs3)ccc2C=Cc2ccc(-c3cccs3)cc21

emission maximum (in C1CCCCC1): 445 nm
emission maximum (in CC#N): 478 nm
emission maximum (in CO): 477 nm
emission maximum (in ClC(Cl)Cl): 454 nm
emission maximum (in ClCCl): 484 nm
emission maximum (in O): 479 nm
SMILES: c1ccc(-c2nc(-c3ccccc3)n3ccccc23)cc1

emission maximum (in CO): 389 nm
SMILES: COc1ccc(-c2nc(-c3ccc(OC)cc3)c(-c3ccc(OC)cc3)[nH]2)cc1

emission maximum (in ClCCl): 586 nm
SMILES: CC(C)(C)OC(=O)CN1CCN(c2ccc3c(-c4ccc(I)cc4)c4ccc(=[N+]5CCN(CC(=O)OC(C)(C)C)CC5)cc-4oc3c2)CC1

emission maximum (in C1CCOC1): 725 nm
emission maximum (in CC#N): 721 nm
emission maximum (in ClCCl): 730 nm
SMILES: CCC(CC)COC1=CC2=C3c4cc(OCC(CC)CC)c(-c5ccccc5)n4[B-](F)(F)[n+]4nnn(c43)[B-](F)(F)[N+]2=C1c1ccccc1

emission maximum (in CC#N): 345 nm
emission maximum (in CCOC(C)=O): 343 nm
emission maximum (in CO): 351 nm
emission maximum (in O): 351 nm
SMILES: O=c1[nH]c(=O)c2scc([C@H]3C[C@H](O)[C@@H](CO)O3)c2[nH]1

emission maximum (in C1CCOC1): 403 nm
SMILES: c1ccc2c(c1)-c1ccccc1C21c2ccccc2-c2sc3c(c21)C1(c2ccccc2-c2ccccc21)c1ccccc1-3

emission maximum (in ClCCl): 495 nm
SMILES: COC(=O)C1=C(C(=O)OC)[Se](=O)[C@]23C1=C[C@H](c1ccccc12)c1ccccc13 (some centres not stated)

Further lines, the compound ahead of its results:

SMILES: CC(C)(C)c1ccc2c(c1)B1c3cc(C(C)(C)C)ccc3Oc3cc(-n4c5ccccc5c5c6c(c7ccccc7n6-c6ccccc6)c6c(c7ccccc7n6-c6ccccc6)c54)cc(c31)O2
emission maximum (in Cc1ccccc1): 456 nm

SMILES: CCNc1ccc2c(C(F)(F)F)cc(=O)oc2c1
emission maximum (in C1CCC2CCCCC2C1): 420 nm
emission maximum (in C1CCCCC1): 417 nm
emission maximum (in CC1CCCCC1): 417 nm
emission maximum (in CC#N): 485 nm
emission maximum (in CC(C)=O): 485 nm
emission maximum (in CC(C)O): 490 nm
emission maximum (in CCC(C)CC): 415 nm
emission maximum (in CCCC(C)C): 415 nm
emission maximum (in CCCCCC): 417 nm
emission maximum (in CCCCCCO): 490 nm
emission maximum (in CCCCO): 493 nm
emission maximum (in CCO): 500 nm
emission maximum (in CCOC(C)=O): 478 nm
emission maximum (in CO): 500 nm

SMILES: c1cc2ccc3ccc4cc3c2cc1c1ccc2c(c1)c1cc(ccc1[C@]13OCCO[C@]21OCCO3)c1ccc2c(c1)c1cc4ccc1[C@]13OCCO[C@]21OCCO3
emission maximum (in Cc1ccccc1): 388 nm

SMILES: Cc1cccc2ccccc12
emission maximum (in C1CCCCC1): 339.9 nm

SMILES: COc1cc(-c2cc(-c3ccc(C)cc3)nc3c(C#N)c(N4CCCC4)nc(N)c23)cc(OC)c1OC
emission maximum (in CC#N): 525 nm
emission maximum (in CC(C)=O): 521 nm
emission maximum (in CC(C)O): 513 nm
emission maximum (in CO): 526 nm
emission maximum (in ClC(Cl)Cl): 509 nm
emission maximum (in ClCCl): 515 nm
emission maximum (in c1ccccc1): 508 nm

SMILES: CCN(CC)c1ccc(-c2nc(Oc3ccc(-c4nc5ccc(Cl)cc5o4)cc3)nc(Oc3ccc(-c4nc5ccc(Cl)cc5o4)cc3)n2)cc1
emission maximum (in CN(C)C=O): 424 nm

SMILES: c1ccc(-c2ccc(-c3cc(-c4ccccn4)nc(-c4ccccn4)c3)cc2)cc1
emission maximum (in ClCCl): 360 nm

SMILES: O=C([O-])c1cc(N2C(=O)C=CC2=O)ccc1-c1c2cc(F)c(=O)cc-2oc2cc([O-])c(F)cc12
emission maximum (in O): 520 nm

SMILES: C(=C\c1ccc(-c2nnc(-c3ccc(/C=C/c4ccc(-c5nc(-c6ccccc6)c(-c6ccccc6)[nH]5)cc4)cc3)o2)cc1)/c1ccc(-c2nc(-c3ccccc3)c(-c3ccccc3)[nH]2)cc1
emission maximum (in C1CCOC1): 492 nm
emission maximum (in CC#N): 525 nm
emission maximum (in CN(C)C=O): 524 nm
emission maximum (in Cc1ccccc1): 445 nm

SMILES: N#Cc1c(C#N)c(-n2c3ccccc3c3ccccc32)c(-n2c3ccccc3c3ccccc32)c(-n2c3ccccc3c3ccccc32)c1-n1c2ccccc2c2ccccc21
emission maximum (in Cc1ccccc1): 525 nm

SMILES: Cc1ccc(C2=CC(c3ccc(C)cc3)=[N+]3C2=Nc2c(-c4ccc(C)cc4)cc(-c4ccc(C)cc4)n2[B-]3(F)F)cc1
emission maximum (in ClC(Cl)Cl): 697 nm

SMILES: COC(=O)C1=C(C(=O)OC)C2=C[C@H]3c4ccccc4[C@]2(S1)c1ccccc13
emission maximum (in C1CCOC1): 477 nm
emission maximum (in CC#N): 489 nm
emission maximum (in CCCCCC): 465 nm
emission maximum (in CCOCC): 473 nm
emission maximum (in CO): 500 nm
emission maximum (in ClCCl): 488 nm
emission maximum (in c1ccccc1): 477 nm

SMILES: N#Cc1cc(N2c3ccccc3Oc3ccccc32)cc(N2c3ccccc3Oc3ccccc32)c1
emission maximum (in Cc1ccccc1): 520 nm

SMILES: Cc1ccc(C)n1-c1ccc(C#N)cc1
emission maximum (in C1CCOC1): 501 nm
emission maximum (in CCCCCC): 406 nm
emission maximum (in CCCCCl): 480 nm
emission maximum (in CCOCC): 479 nm
emission maximum (in ClCCl): 517 nm

SMILES: COc1ccc2c3c(c4ccc(C(C)(C)C)cc4c2c1)=C(c1cc(OC)c(OC)c(OC)c1)C1=Nc2c(-c4cc(OC)c(OC)c(OC)c4)c4c5ccc(C(C)(C)C)cc5c5cc(OC)ccc5c4n2[B-](F)(F)[N+]=31
emission maximum (in Cc1ccccc1): 810 nm

SMILES: O=C(c1ccc(-n2c3ccccc3c3cc(-n4c5ccccc5c5ccccc54)ccc32)cc1)c1ccc(-n2c3ccccc3c3cc(-n4c5ccccc5c5ccccc54)ccc32)cn1
emission maximum (in Cc1ccccc1): 462 nm
emission maximum [1]: 475 nm

SMILES: Cc1c(C2=[N+]3C(=Cc4c(C)c5ccccc5n4[B-]3(F)F)c3ccccc32)[nH]c2ccccc12
emission maximum (in C1CCOC1): 646 nm
emission maximum (in CC#N): 637 nm
emission maximum (in CCCCCC): 644 nm
emission maximum (in CO): 643 nm
emission maximum (in Cc1ccccc1): 656 nm
emission maximum (in ClCCl): 648 nm

SMILES: CN(C)c1ccc(/C=C/c2cc[n+](CCCCCCCCCCCC[n+]3ccc(/C=C/c4ccc(N(C)C)cc4)cc3)cc2)cc1
emission maximum (in CC1COC(=O)O1): 602 nm
emission maximum (in CC#N): 602 nm
emission maximum (in CC(C)=O): 602 nm
emission maximum (in CC(C)O): 590 nm
emission maximum (in CCO): 593 nm
emission maximum (in CN(C)C=O): 602 nm
emission maximum (in CO): 597 nm
emission maximum (in CS(C)=O): 607 nm
emission maximum (in ClC(Cl)Cl): 580 nm
emission maximum (in O): 597 nm
emission maximum (in c1ccncc1): 598 nm

SMILES: Cc1ccc2c(CC(=O)NN)coc2c1
emission maximum (in C1CCOC1): 400 nm
emission maximum (in CC#N): 397 nm
emission maximum (in CC(C)=O): 402 nm
emission maximum (in CCCCO): 398 nm
emission maximum (in CCCO): 394 nm
emission maximum (in CCO): 397 nm
emission maximum (in CCOC(C)=O): 390 nm
emission maximum (in CN(C)C=O): 412 nm
emission maximum (in CO): 391 nm
emission maximum (in ClCCl): 399 nm

SMILES: Cc1cc(-n2c3ccccc3c3cc4c(cc32)C2c3ccccc3C4c3ccccc32)ccc1-c1nc(-c2ccccc2)nc(-c2ccccc2)n1
emission maximum (in Cc1ccccc1): 429 nm
emission maximum [1]: 444 nm

SMILES: CCCCC1=Cc2c3ccc4cccc5ccc(c6cc(-c7ccccc7)n(c26)P1(=O)c1ccccc1)c3c45 (configuration not stated)
emission maximum (in C1CCCCC1): 452 nm
emission maximum (in C1CCOC1): 459 nm
emission maximum (in C1COCCO1): 460 nm
emission maximum (in CC#N): 459 nm
emission maximum (in CC(C)=O): 459 nm
emission maximum (in CO): 459 nm
emission maximum (in Cc1ccccc1): 460 nm
emission maximum (in ClC(Cl)Cl): 458 nm
emission maximum (in ClCCl): 459 nm

SMILES: C(=C\c1nc(/C=C/c2ccc(-n3c4ccccc4c4ccccc43)cc2)nc(/C=C/c2ccc(-n3c4ccccc4c4ccccc43)cc2)n1)/c1ccc(-n2c3ccccc3c3ccccc32)cc1
emission maximum (in C1CCOC1): 500 nm
emission maximum (in CC#N): 574 nm
emission maximum (in Cc1ccccc1): 453 nm
emission maximum (in ClCCl): 526 nm

Reference: the Deep4Chem optical property database
